ChEMBL document CHEMBL1149385, “A selective estrogen receptor modulator for the treatment of hot flushes” (J Med Chem, 2006)
Calls of active or inactive are those of the source. No cut-off for these calls is given here.

Columns and labels:
[1] = system: Rattus norvegicus; experiment: Eosinophil peroxidase activity in ovariectomized orally dosed Sprague-Dawley rat; format: functional, organism-based; conditions: filed as agonist
[2] = system: Rattus norvegicus; experiment: Ability to block ovariectomy-induced bone loss in orally dosed Sprague-Dawley rat; format: functional, organism-based
[3] = system: Rattus norvegicus; experiment: Ability to reduce serum cholesterol level in ovariectomized orally dosed Sprague-Dawley rat at 0.01 mg/kg; format: functional; set-up: scale not given: the % may be the effect or the level left; conditions: route oral
[4] = system: Rattus norvegicus; experiment: Efficacy against hot flush in morphine dependent ovariectomized orally dosed Sprague-Dawley rat model; format: functional, organism-based
[5] = target: T1, Estrogen receptor (Homo sapiens, UniProt P03372); experiment: Displacement of [3H]17beta-estradiol from ERalpha
T1 sequence (P03372 whole entry): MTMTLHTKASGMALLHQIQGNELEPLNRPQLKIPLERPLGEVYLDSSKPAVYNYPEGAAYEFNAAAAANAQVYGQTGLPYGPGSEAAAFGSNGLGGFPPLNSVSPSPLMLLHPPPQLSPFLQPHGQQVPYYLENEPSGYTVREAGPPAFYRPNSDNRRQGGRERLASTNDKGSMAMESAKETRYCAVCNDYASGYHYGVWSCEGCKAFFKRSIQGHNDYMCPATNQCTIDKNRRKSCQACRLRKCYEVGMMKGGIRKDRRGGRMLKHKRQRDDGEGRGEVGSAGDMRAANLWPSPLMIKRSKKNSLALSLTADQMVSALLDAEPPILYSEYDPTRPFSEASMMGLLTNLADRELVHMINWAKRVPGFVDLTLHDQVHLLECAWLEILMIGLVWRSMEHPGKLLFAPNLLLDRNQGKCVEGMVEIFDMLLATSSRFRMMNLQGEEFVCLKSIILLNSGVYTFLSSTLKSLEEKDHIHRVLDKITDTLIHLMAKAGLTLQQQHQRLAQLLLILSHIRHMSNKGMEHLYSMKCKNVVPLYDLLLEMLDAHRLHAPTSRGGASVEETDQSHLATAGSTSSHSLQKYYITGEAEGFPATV

[6] = target: Estrogen receptor beta (Homo sapiens, UniProt Q92731); experiment: Displacement of [3H]17beta-estradiol from ERbeta
[7] = target: T2, Estrogen receptor (Homo sapiens, UniProt Q92731+P03372); experiment: Antagonist effect on breast adenocarcinoma-derived MCF7 cell line; format: functional, cell-based
[8] = target: T2, Estrogen receptor; experiment: Antagonist effect on Ishikawa uterine cancer cell line in presence of 17-beta-estradiol; format: functional, cell-based
[9] = system: Rattus norvegicus; experiment: Inhibition of estrogen-induced effect on uterine weight in orally dosed Sprague-Dawley rat; format: functional

Chain of Estrogen receptor beta (Q92731 whole entry): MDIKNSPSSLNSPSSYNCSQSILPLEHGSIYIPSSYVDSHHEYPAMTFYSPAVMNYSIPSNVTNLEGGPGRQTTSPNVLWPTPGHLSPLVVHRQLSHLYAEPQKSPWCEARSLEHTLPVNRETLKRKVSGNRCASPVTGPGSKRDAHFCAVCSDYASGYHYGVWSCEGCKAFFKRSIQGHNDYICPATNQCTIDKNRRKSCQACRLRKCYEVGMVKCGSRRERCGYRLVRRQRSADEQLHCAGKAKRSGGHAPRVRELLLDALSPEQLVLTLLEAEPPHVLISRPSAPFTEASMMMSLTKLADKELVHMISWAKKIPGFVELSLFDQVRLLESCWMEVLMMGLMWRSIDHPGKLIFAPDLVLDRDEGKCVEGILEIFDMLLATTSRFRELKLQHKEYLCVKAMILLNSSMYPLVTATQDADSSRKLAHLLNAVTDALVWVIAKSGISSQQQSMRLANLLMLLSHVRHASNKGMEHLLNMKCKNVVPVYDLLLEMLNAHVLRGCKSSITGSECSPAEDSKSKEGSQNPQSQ

Row | Activity [1] | Ki [5] [nM] | Ki [6] [nM] | IC50 [7] [nM] | IC50 [8] [nM] | SMILES | Activity [2] | Activity [3] [%] | Efficacy [4] | ED50 ([9]; po) [mg/kg] | ED50 [9]
1 | Antagonist |  |  |  |  | O=C(c1ccc(OCCN2CCCC2)cc1)c1c(-c2ccc(O)cc2)sc2cc(O)ccc12 | Active |  |  |  | 
2 | Antagonist | 0.3 | 0.5 | 1.4 | 5.3 | Cl.Oc1ccc2c3c(ccc2c1)-c1cc(F)cc(F)c1O[C@@H]3c1ccc(OCCN2CCCCC2)cc1 | Active | 50 | Dose-dependent effect | 0.03 | 
3 |  | 5.8 | 54 | 330 | 430 | Cl.Oc1ccc2c3c(ccc2c1)-c1cc(F)cc(F)c1O[C@H]3c1ccc(OCCN2CCCCC2)cc1 |  |  |  |  | inactive
